Laboratory results taken from PubChem BioAssay (NCI).
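Protocol summary: plate cells (96-well), add compound at 5 concentrations, incubate 48 h, interpolate endpoints linearly. GI50 is the concentration that inhibits growth by half. At the TGI there is no net growth.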 Where a SMILES comes first, the peptide text is derived from it. The star is where a group is joined. Boc = CC(C)(C)OC(=O)*; OtBu = CC(C)(C)O*

How the values were obtained:
Assay in all cases: growth of human tumour cells (NCI), 48 h
SW-620 colon = system: SW-620 colon
U251 CNS = system: U251 CNS
MOLT-4 leukemia = system: MOLT-4 leukemia
RXF 393 renal = system: RXF 393 renal
HT29 colon = system: HT29 colon
IGROV1 ovarian = system: IGROV1 ovarian
SK-OV-3 ovarian = system: SK-OV-3 ovarian
KM12 colon = system: KM12 colon
NCI/ADR-RES ovarian = system: NCI/ADR-RES ovarian
HCT-116 colon = system: HCT-116 colon

Row | SMILES | TGI (SW-620 colon) [µM] | TGI (U251 CNS) [µM] | TGI (MOLT-4 leukemia) [µM] | TGI (RXF 393 renal) [µM] | TGI (HT29 colon) [µM] | TGI (IGROV1 ovarian) [µM] | TGI (SK-OV-3 ovarian) [µM] | TGI (KM12 colon) [µM] | TGI (NCI/ADR-RES ovarian) [µM] | TGI (HCT-116 colon) [µM] | GI50 (SW-620 colon) [µM] | GI50 (U251 CNS) [µM] | GI50 (MOLT-4 leukemia) [µM] | GI50 (HT29 colon) [µM] | GI50 (IGROV1 ovarian) [µM] | GI50 (SK-OV-3 ovarian) [µM] | GI50 (KM12 colon) [µM] | GI50 (NCI/ADR-RES ovarian) [µM] | GI50 (HCT-116 colon) [µM]
1 | C/C(=C\COP(=O)(O)CP(=O)(O)O)CC/C=C(\C)CNc1ccccc1 | > 100 | > 100 | > 100 | > 100 | > 100 | > 100 | > 100 | > 100 | > 100 | > 100 |  |  |  |  |  |  |  |  | 
2 | FC(F)(F)c1ccc2c(c1)nc(Cc1ccc(Cl)cc1)n2CC1CCCN2CCCCC12 (stereo unspecified) | 27.4 | 20.5 | 10.4 | 22 | 11.6 | 22 | 24.1 | 21.4 | 20.8 | 19.9 |  |  |  |  |  |  |  |  | 
3 | Cc1ccc(Nc2nc3ccccc3nc2NS(=O)(=O)c2ccc(N)cc2)cc1 | > 100 | > 100 | 81.8 | > 100 | > 100 | > 100 | > 100 | 94.3 | > 100 | > 100 |  |  |  |  |  |  |  |  | 
4 | COc1cc(N(CCC#N)CCC#N)ccc1/C(N=Nc1cccc([N+](=O)[O-])c1)=N\NC(=O)c1ccc(C)cc1 | > 100 | > 100 | > 100 | > 100 | > 100 | > 100 | > 100 | > 100 | > 100 | > 100 |  |  |  |  |  |  |  |  | 
5 | Cc1nnc(NS(=O)(=O)c2ccc(N=Nc3c(O)c(C(=O)O)cc4ccccc34)cc2)s1 | > 100 | > 100 | > 100 | > 100 | > 100 | > 100 | > 100 | > 100 | > 100 | > 100 |  |  |  |  |  |  |  |  | 
6 | CC(=O)OC1=C(c2ccccc2)S(=O)(=O)c2ccccc21 | > 100 | > 100 | > 100 | > 100 | > 100 | > 100 |  | > 100 | > 100 | > 100 |  |  |  |  |  |  |  |  | 
7 | CCc1c(N=[N+]=[N-])c2ccccc2oc1=O | > 100 | > 100 | > 100 | > 100 | > 100 | > 100 | > 100 | > 100 | > 100 | > 100 |  |  |  |  |  |  |  |  | 
8 | CC(C)CCNC(=O)c1ccc(CNC(=O)/C=C/c2ccc3c(c2)-c2ccccc2C3)cc1 | > 100 | 65.2 | > 100 | 82.6 | > 100 | > 100 | > 100 | > 100 | > 100 | > 100 |  |  |  |  |  |  |  |  | 
9 | C[N+](C)(C)CC(=O)N/N=C\c1c(O)ccc2ccccc12 | > 100 | > 100 | 51.7 | 82.5 | > 100 | > 100 | > 100 | > 100 | > 100 | > 100 |  |  |  |  |  |  |  |  | 
10 | O[C@@H]1CCCCN1Cc1cc2cc3c(cc2c2cc(OCc4ccccc4)ccc12)OCO3 | 2.7 | 2.95 | 8.05 |  | 2.45 | 3.11 | 3.39 | 3.16 | 3.47 | 2.21 | 1.17 | 1.52 | 0.666 | 1.03 | 1.68 | 1.64 | 1.59 | 1.5 | 1.04
11 | C=C1C(=O)O[C@H]2[C@@H]3O[C@@](C)(CC/C=C(\C)CCC[C@@H]2C)[C@H](O)C[C@@H]13 | > 100 | > 100 |  | 84.3 | 3.94 | 35.6 | 32.5 | 26.2 | 7.62 | > 100 |  |  |  |  |  |  |  |  | 
12 | CC(C)(C)OC(=O)CC(NC(=O)OC(C)(C)C)C(=O)NC(Cc1ccccc1)C(N)=O (stereo unspecified) (Boc-Asp(OtBu)-Phe-NH2; configuration not given here) | > 100 | > 100 |  | > 100 | > 100 | > 100 | > 100 | > 100 | > 100 | > 100 |  |  |  |  |  |  |  |  | 
13 | COc1ccc(C2OC2C(=O)C23CC4CC(CC(C4)C2)C3)cc1 (stereo unspecified) | > 100 | > 100 | > 100 | > 100 | > 100 | > 100 |  | > 100 | > 100 | > 100 |  |  |  |  |  |  |  |  | 
14 | O=[N+]([O-])c1cccc(-c2ccc([C@H]3CC(c4ccc(Cl)cc4)=NN3)o2)c1 | > 100 |  | 29.1 | 35.2 | 56.9 | > 100 | 54.5 |  | 76.3 | 31.2 |  |  |  |  |  |  |  |  | 
15 | CCOC(=O)c1c2ccccc2n2c(=O)n(-c3ccccc3)nnc12 | > 100 | > 100 |  | > 100 |  | > 100 | > 85 | > 100 | > 100 | > 100 |  |  |  |  |  |  |  |  | 
16 | COCc1nc(C#N)c(N)o1 | > 10 |  | > 10 | > 10 | > 10 | > 10 | > 10 | > 10 | > 10 | > 10 |  |  |  |  |  |  |  |  | 
17 | O=C1/C(=C/c2ccc(Cl)cc2)NC(=S)N1CN1CCCCC1 | 45.3 | > 100 | > 100 |  | 29.3 | > 100 | > 100 | > 100 | 72 | > 100 |  |  |  |  |  |  |  |  | 
18 | CCOC(=O)n1c(=O)nc2c3c(ncn21)Oc1c(c(-c2ccccc2)nn1-c1ccccc1)C3c1ccc(Cl)cc1 (stereo unspecified) | 3.09 | 3.06 |  | 2.91 | 3.12 |  | 6.47 | 2.89 | 3.11 | 2.82 |  |  |  |  |  |  |  |  | 
19 | COC(=O)C#CC1(O)C=CC(=O)C=C1 |  |  | 0.0794 | 3.76 | 13.5 | 2.85 | > 100 | 2.3 | > 100 |  |  |  |  |  |  |  |  |  | 
20 | CC12CCC(C(=Nc3ccc([N+](=O)[O-])cc3)C1=O)C2(C)C (stereo unspecified) | 98.4 | 97.6 |  | 44.9 | > 100 | 57.3 | > 100 | 92.9 | 63.5 | > 100 |  |  |  |  |  |  |  |  | 
21 | CN(C)CCC(C#N)(c1ccccc1)c1ccccc1 | > 100 | > 100 |  | > 100 | > 100 | > 100 | > 100 | > 100 | > 100 | > 100 |  |  |  |  |  |  |  |  | 
